{"source": "patent US20250213575A1", "about": "“8-HETEROCYCLIC-3-(PHENYLSULFONYL)-[1,2,3]TRIAZOLO[1,5A]QUINAZOLIN-5(4H)-ONE DERIVATIVES AS ANTI-BACTERIALS” (priority 2022, published 2025)", "origin": "cited, not measured here", "test_system": "AgrA-regulated toxin gene transcription such as hla, psma and pvl", "settings": "across all four agr groups; cited from earlier work"}
{"compound": "CC(C)c1ccc(S(=O)(=O)c2nnn3c2nc(O)c2ccccc23)cc1", "note": "[Savirin]", "values": [{"measurement": "modulation of AgrA-regulated toxin gene transcription", "result": "potent modulator"}]}
